From article PMC9014415, “Repositioning of a Diaminothiazole Series Confirmed to Target the Cyclin-Dependent Kinase CRK12 for Use in the Treatment of African Animal Trypanosomiasis” (Journal of Medicinal Chemistry, 2022)
Values after ≈ are worked out from the molar mass of the structure shown. Values joined by “and” are separate entries in the source; they are usually repeats but may differ in a detail not shown here. Equal values may be shown once. Read-outs that look alike come from different tables or passages of the source.

Key:
T. vivax = experiment: Ex vivo drug sensitivity assay, T. vivax (STIB 719/ILRAD 560); type: cell-based; conditions: Trypanosoma vivax
Procedure: Test compounds were resuspended to a final concentration of 10 mg/mL in DMSO. […]
1.3 Ex vivo drug sensitivity assays - Trypanosoma vivax
Since T. vivax cannot be cultured axenically, BSF trypanosomes were harvested from an infected mouse with high parasitemia via cardiac puncture and used directly in ex vivo assays. EC50 values were determined against T, vivax (STIB 719/ ILRAD 560) as previously described3, with minor modifications. Briefly, cell densities were determined using a Neubauer chamber and then diluted to a seeding density of 4 x 105 trypanosomes / mL. BSF trypanosomes were cultured in HMI-9 (IMDM) media containing 20% (v/v) bovine serum. Assay plates were incubated at 37 °C with 5 % CO2, for a total of 45 h prior to addition 10 µL of Resazurin (12.5 mg in 100 mL phosphate buffered saline, Aldrich) into each well, followed by a further 3 h incubation. Absorbance was read using a SpectraMax (Gemini XS) fluorescence reader at an excitation wavelength of 536 nm and an emission wavelength of 588 nm. EC50 values were determined using SOFTmax Pro 5.2 analysis […]
software. […]

[1] = Pharmacokinetic studies in male Friesian-Holstein cattle, IV and IM (Ridgeway); type: in vivo; conditions: for Vd: read-out: Vdss
Procedure: 2.7 Pharmacokinetic studies in cattle (see Table 2). Studies conducted at Ridgeway Compound 1 was dosed IM at 5 mg free base/kg (dose volume 2mL/10 kg; dose vehicle 10% N-Methyl-2-Pyrrolidinone (NMP), 40% 2-pyrrolidinone, 30% PEG400, 20% deionized water) or IV at 2.5 mg free base/kg (dose volume 0.4 mL/10 kg; 2.5% NMP, 30% PEG400, 37.5% propylene glycol, 30% water by volume) to male ruminating Holstein-Friesian cross animals (n = 4). Blood samples were taken from each animal using 18-G needles into EDTA (K2) vacutainers before dosing and at […]
a cool box containing iced water and were processed within 2 h of collection (Figure S2, Table S1).
Compound 2 was dosed IM at 10 mg free base/kg (dose volume 2 mL/10 kg; dose vehicle 40% 0.3 M Acetate Buffer, 20% Kolliphor EL, 20% glycerol formal, 20% 2-pyrrolidone) or IV at 2 mg free base/kg (dose volume 0.4 mL/10 kg; 40% 0.3 M Acetate Buffer, 20% Kolliphor EL, 20% glycerol formal, 20% 2-pyrrolidone) to male ruminating Holstein-Friesian cross animals (n = 3). Blood samples were taken from each animal using 18-G needles into EDTA (K2) vacutainers before dosing […]
into a cool box containing iced water and were processed within 2 h of collection. […]

[2] = PK in female NMRI mice, SC; type: in vivo, mouse
Procedure: 2.5 PK and maximum tolerated dose - mouse
PK studies in female NMRI mice (Figure S1): Test compounds 1, 2 and 10 were dosed SC at 10 mg free base/kg (dose volume 10 mL/kg; dose vehicle: 5% (v/v) DMSO, 40% polyethylene glycol 400 (PEG400) and 55% deionized water) to female NMRI mice (n = 3). Blood samples (10 μL) were taken from each mouse at 0.08, 0.25, 0.5, 1, 2, 4, 6, 8 h post dose (24 h post dose for compounds 2 and 10 only) and mixed with two volumes of deionized water (20 μL). Alternatively, compound 2 was delivered for 48 h via SC implanted ALZET osmotic pumps (10, 25 and 50 mg free base/mL, vehicle: 50% DMSO and 50% deionized water) to the female NMRI mouse (n = 3). Blood samples (10 μL) from each mouse were taken at 1, 3, 6, 24, 30 and 48 h post-dose and mixed with two volumes of deionized water (20 μL). […]

[3] = Aqueous kinetic solubility by laser nephelometry; type: physicochemical; conditions: MilliQ water with 2.5% DMSO, pH 7.4, range 250-12 µM, read-out: Sol (kinetic solubility)
Procedure: 2. Drug metabolism and pharmacokinetics
The aqueous solubility of test compounds was measured using laser nephelometry. Compounds were subject to serial dilution from 10 mM to 0.5 mM in DMSO. Aliquot were then mixed with MilliQ water to obtain an aqueous dilution plate with a final concentration range of 250 – 12 µM. The final DMSO concentration in these plates was 2.5%. Triplicate aliquots were transferred to a flat-bottomed polystyrene plate which was immediately read on a NEPHELOstar nephelometer (BMG Lab Technologies). The laser scatter caused by insoluble particulates (relative nephelometry units, RNU) was plotted against compound concentration using a segmental regression fit, with the point of inflection being quoted as the compound’s aqueous solubility (µM).
Solubility of compound 1 was measured by a different method. Here, compound 1 was dissolved in DMSO to give a 10 mM solution and solubility test samples prepared by adding a volume (5 µL) of this stock solution to phosphate buffered saline, pH 7.4 (195 µL, Sigma-Aldrich). This

[4] = Injection site tolerance in the IM efficacy study in African cattle; type: in vivo; conditions: free base in Kolliphor EL, NMP, 2-pyrrolidone, 11% water
Procedure: Compound 2 was only partially curative for cattle infected with T. congolense following two doses (1/4 and 2/4 in different treatment arms), administered 15 h apart (Table 4, Table S8, and Figure S9a). The curative regimen aligned well with PK/PD data from mice. However, cattle infected with T. vivax and dosed IM were not cured despite the fact that PK data from some T. vivax-infected cattle (Table 4, Table S9, and Figure S9b) predicted that a dosing at this level should have been curative based on mouse data. This lack of efficacy at exposures expected to deliver a cure is even more perplexing when the metabolism of compound 2 is considered. […] The rate and extent of this metabolism is higher in T. vivax-infected animals compared to those infected with T. congolense (Table S10) for reasons that are not clear.

[5] = cattle, IM 5 mg/kg, individual animals 2754, 7462, 1753, 6752
[6] = cattle, IM 5 mg/kg, n = 4, mean
[7] = cattle, IV 2.5 mg/kg, individual animals 2754, 7462, 1753, 6752, 2.5 mg/kg
[8] = male, Holstein-Friesian cross, bovine, blood, im, 5 mg/kg, cattle, IM 5 mg/kg, individual animals 2754, 7462, 1753, 6752
[9] = cattle, IM 10 mg/kg, individual animals 1644, 3646, 7643
[10] = cattle, IM 10 mg/kg, n = 3, mean
[11] = cattle, IV 2 mg/kg, individual animals 1644, 3646, 7643, 2 mg/kg
[12] = cattle, IV 2 mg/kg, n = 3, mean, 2 mg/kg
[13] = male, Holstein-Friesian cross, bovine, blood, im, 10 mg/kg, cattle, IM 10 mg/kg, individual animals 1644, 3646, 7643
[14] = male, Holstein-Friesian cross, bovine, blood, im, 10 mg/kg, cattle, IM 10 mg/kg, n = 3, mean
[15] = male, Holstein-Friesian cross, bovine, blood, iv, 2 mg/kg, cattle, IV 2 mg/kg, individual animals 1644, 3646, 7643
[16] = male, Holstein-Friesian cross, bovine, blood, iv, 2 mg/kg, cattle, IV 2 mg/kg, n = 3, mean

## CC(C)CS(=O)(=O)N[C@H]1CC[C@H](Nc2nc(N)c(C(=O)c3c(F)cccc3F)s2)CC1 [Compound 1, N-((trans)-4-((4-Amino-5-(2,6-difluorobenzoyl)thiazol-2-yl)amino)cyclohexyl)-2-methylpropane-1-sulfonamide]
T. vivax
  EC50: 95 nM
[1]; [5]
  AUC 0-∞: 26,000 ng-min/mL and 15,000 ng-min/mL and 22,000 ng-min/mL
  Cmax: 70 ng/mL and 128 ng/mL and 118 ng/mL and 216 ng/mL
  F: 11% and 7% (2×)
  Tmax: 0.25 h
[1]; [6]
  Cmax: 130 ± 60 ng/mL
  F: 8.8 ± 2.1%
[1]; [7]
  AUC 0-∞: 120,000 ng-min/mL (2×) and 160,000 ng-min/mL
  Clb: 24 mL/min/kg and 20 mL/min/kg and 21 mL/min/kg and 15 mL/min/kg
  Vdss: 3.5 L/kg and 1.8 L/kg and 2.5 L/kg and 1.7 L/kg
  half-life: 1.7 h and 2.4 h
[1]; cattle, IV 2.5 mg/kg, n = 4, mean ± SD
  Clb: 20 ± 4 mL/min/kg
[1]; [8]
  AUC(0-inf): 350 ng·h/mL
  bioavailability: 10%
[1]; male, Holstein-Friesian cross, bovine, blood, im, 5 mg/kg, cattle, IM 5 mg/kg, individual animals 2754, 7462, 1753, 6752, read-out: Tmax
  Tmax: 0.5 h
[1]; male, Holstein-Friesian cross, bovine, blood, im, 5 mg/kg, cattle, IM 5 mg/kg, n = 4, mean
  bioavailability: 9%
[1]; male, Holstein-Friesian cross, bovine, blood, im, 5 mg/kg, cattle, IM 5 mg/kg, n = 4, mean, read-out: Cmax
  Cmax: 133 ng/mL
[1]; male, Holstein-Friesian cross, bovine, blood, iv, 2.5 mg/kg, cattle, IV 2.5 mg/kg, individual animals 2754, 7462, 1753, 6752
  AUC(0-inf): 1670 ng·h/mL
[1]; male, Holstein-Friesian cross, bovine, blood, iv, 2.5 mg/kg, cattle, IV 2.5 mg/kg, individual animals 2754, 7462, 1753, 6752, read-out: Half-life (converted)
  half-life: 1.2 h
[1]; male, Holstein-Friesian cross, bovine, blood, iv, 2.5 mg/kg, cattle, IV 2.5 mg/kg, n = 4, mean ± SD
  AUC(0-inf): 2170 ng·h/mL
[1]; male, Holstein-Friesian cross, bovine, blood, iv, 2.5 mg/kg, cattle, IV 2.5 mg/kg, n = 4, mean ± SD, read-out: half-life (converted)
  half-life: ~1.8 h
[1]; male, Holstein-Friesian cross, bovine, blood, cattle, IM 5 mg/kg, mean, read-out: AUC0-8 (converted)
  AUC(0-t): 349 ng·h/mL
[1]; male, Holstein-Friesian cross, bovine, whole blood, im, 5 mg/kg, cattle, IM 5 mg/kg, n = 4, mean ± SD
  AUC(0-inf): 350 ng·h/mL
[1]; male, Holstein-Friesian cross, bovine, whole blood, im, 5 mg/kg, cattle, IM 5 mg/kg, n = 4, mean ± SD, read-out: Tmax
  Tmax: 0.44 ± 0.13 h
[1]; male, Holstein-Friesian cross, bovine, whole blood, iv, 2.5 mg/kg, cattle, IV 2.5 mg/kg, n = 4, mean ± SD
  Vd: 2.4 ± 0.8 L/kg
[2]; mouse, whole blood, 10 mg/kg SC
  bioavailability at 8 h: 74%
[2]; mouse, whole blood, 10 mg/kg SC, read-out: T½
  half-life at 8 h: 1 h
[2]; mouse, whole blood, 10 mg/kg SC, read-out: T½ (converted)
  half-life: ~1 h

## CC(C)CS(=O)(=O)N[C@H]1CC[C@H](Nc2nc(N)c(C(=O)c3c(F)cc(CN(C)C)cc3F)s2)CC1 [Compound 2, N-(trans)-[4-[[4-Amino-5-[4-(dimethylaminomethyl)-2,6-difluoro-benzoyl]thiazol-2-yl]amino]cyclohexyl]-2-methyl-propane-1-sulfonamide]
T. vivax
  EC50: 0.08 nM
[1]; Friesian cattle, single IM 10 mg free base/kg
  Cav: 253 ng/mL
[1]; [9]
  AUC 0-∞: 510,000 ng-min/mL and 460,000 ng-min/mL
  Cmax: 950 ng/mL and 1,700 ng/mL and 2,600 ng/mL
  F: 75% and 66%
[1]; [10]
  AUC 0-∞: 500,000 ± 30,000 ng-min/mL
  Cmax: 1700 ± 800 ng/mL
  F: 73 ± 6%
  Tmax: 1.3 ± 0.6 h
[1]; cattle, IM, pharmacokinetic study
  Injection site tolerability: irritancy and necrosis
[1]; [11]
  AUC 0-∞: 94,000 ng-min/mL and 180,000 ng-min/mL
  Clb: 14 mL/min/kg and 21 mL/min/kg and 11 mL/min/kg
  half-life: 3 h
[1]; [12]
  AUC 0-∞: 140,000 ± 40,000 ng-min/mL
  Clb: 15 mL/min/kg and 15 ± 5 mL/min/kg
  Vdss: 2.3 ± 0.6 L/kg
[1]; male, Holstein-Friesian cross, bovine, blood, 10 mg/kg, Friesian cattle, single IM 10 mg free base/kg
  AUC: 7330 ng·h/mL
[1]; [13]
  AUC(0-inf): 8830 ng·h/mL
  bioavailability: 78%
[1]; male, Holstein-Friesian cross, bovine, blood, im, 10 mg/kg, cattle, IM 10 mg/kg, individual animals 1644, 3646, 7643, read-out: Tmax
  Tmax: 2 h
[1]; [14]
  AUC(0-inf): 8170 ng·h/mL
  bioavailability: 74%
[1]; male, Holstein-Friesian cross, bovine, blood, im, 10 mg/kg, cattle, IM 10 mg/kg, n = 3, mean, read-out: Cmax
  Cmax: 1720 ng/mL
[1]; male, Holstein-Friesian cross, bovine, blood, im, 10 mg/kg, cattle, IM 10 mg/kg, n = 3, mean, read-out: Tmax
  Tmax: 1 h
[1]; male, Holstein-Friesian cross, bovine, blood, intramuscular, Friesian cattle, single IM 10 mg free base/kg, read-out: Cmin (24 h)
  concentration at 24 h: 20 ng/mL
[1]; [15]
  AUC(0-inf): 2330 ng·h/mL
  Vd: 2 L/kg
[1]; male, Holstein-Friesian cross, bovine, blood, iv, 2 mg/kg, cattle, IV 2 mg/kg, individual animals 1644, 3646, 7643, read-out: Half-life (converted)
  half-life: 6 h
[1]; [16]
  AUC(0-inf): 2170 ng·h/mL
  Vd: 3 L/kg
[1]; male, Holstein-Friesian cross, bovine, whole blood, iv, 2 mg/kg, cattle, IV 2 mg/kg, n = 3, mean, read-out: half-life (converted)
  half-life: 4 ± 2 h
[2]; mouse, blood, 10 mg/kg, single SC 10 mg free base/kg
  Cmax: 818 ng/mL
[2]; mouse, blood, 10 mg/kg, single SC 10 mg free base/kg, read-out: AUC0-24 (converted)
  AUC(0-t): 2160 ng·h/mL
[2]; mouse, blood, single SC 10 mg free base/kg, read-out: Cmin (8 h)
  concentration at 8 h: 10 ng/mL
[2]; single SC 10 mg free base/kg
  Cav: 78 ng/mL
[3]
  solubility kinetic at 24 h: 250 µM (≈ 132 µg/mL)
[4]
  Injection site tolerance: injection site tolerance issues
